Measured values taken from US5942494A, “Stimulation of gene expression and synthesis of heat shock protein 72/73 (HSP 70)” (The Trustees of Columbia University in the City of New York, priority 1996, dated 1999).
Peptide text beside a SMILES is read from it.

Legend:
[1] = system: 3-hydroxy-3-methylglutaryl-coenzyme A (HMG-CoA) reductase; conditions: Inoue, et al., 1991; cited from earlier work
proteasomes = conditions: Rock, et al., 1994; cited from earlier work
calpain = conditions: Rock, et al., 1994; cited from earlier work
cathepsin B = cathepsin B (Homo sapiens, UniProt P07858); conditions: Rock, et al., 1994; cited from earlier work
apoB = conditions: Sakata, et al., 1993, unpublished data; cited from earlier work
Hsp70 = Hsp70 levels by denaturing immunoprecipitation of [3H]-leucine radiolabeled HepG2 cells; format: cell-based, human
Experimental: The HepG2 cell culture conditions were maintained as previously described (Dixon, et al., 1991). The cells were seeded into collagen-pre-coated dishes or six-well tissue culture plates and grown in complete medium containing minimum essential medium (MEM) with 0.1 mM nonessential amino acids, 1.0 mM sodium pyruvate, penicillin/streptomycin, and 10% fetal bovine serum. Cells were fed fresh complete medium every 3 days and maintained in a 5% CO2 incubator. All experiments were performed by using exponentially growing cells at 90-95% confluency. For heat shock treatment, the dishes were sealed with Parafilm and immersed in a water bath at 42° C. for indicated durations of time. Cells were incubated with ALLN alone at indicated concentrations or combined with other chemicals at 37° C. Cells were also incubated with different protease inhibitors alone at indicated concentrations or combined with other chemicals at 37° C.
(§1) HepG2 cells were preincubated for 4 hours in serum-free MEM and then radiolabeled with ^3 H-Leucine (150 μCi/ml) in a serum-free, leucine-free medium. Preincubation and labeling media each contained either 1.5% bovine serum albumin (BSA) alone, or BSA plus ALLN (40 μg/ml except as otherwise indicated), or BSA plus other protease inhibitors at concentrations indicated in the figure legends. At the indicated times, cells were removed from the 37° C. incubator and placed on ice, washed with cold phosphate-buffer saline (PBS) twice and lysed with lysis buffer containing 1% Triton X-100 (TX100), 1% deoxycholic acid (DOC) and 0.1% SDS in PBS containing proteinase inhibitors: 2 mM phenylmethylsulfonyl fluoride (PMSF); 2 μg/ml ALLN; 2 μg/ml leupeptin; and 2 μg/ml aprotinin. After a 30 min. incubation with lysis buffer at 4° C., the lysates were centrifuged at 14,000 g in a microcentrifuge for 5 min., and the supernatants were adjusted to 1% SDS concentration and boiled for 5 min. to denature the proteins. 1% TX100 was then added to dilute the lysates to a final concentration of 0.1% SDS. Cell lysates containing equal amounts of trichloroacetic acid (TCA)-insoluble radioactivity were used for immunoprecipitations by incubating with individual monoclonal antibody (1 μg/ml) for 2.5 hours at 4° C. Protein-A Sepharose 4B was added afterwards and the lysates incubated for another 1.5 hours at 4° C. to collect the immunocomplexes. After washing four times with 1×NET buffer (containing 0.5% TX100, 0.1% SDS), the immunocomplexes were mixed with sample buffer and boiled for 5 min. Following centrifugation, the supernatants were aliquoted for scintillation counting and for 3-15% gradient polyacrymide gel electrophoresis (SDS-PAGE) . The gels were later subjected to fluorography. All values are presented as the mean ± S.D. from three individual experiments except as otherwise indicated.
Denaturing immunoprecipitation was chosen because Hsp70 is a major cytosolic chaperone protein and it is co-immunoprecipitated with a number of other proteins under non-denaturingconditions (Beckmann, et al., 1990; Zhou, et al., 1995).

[2] = system: cysteine protease, serine protease, trypsin or chymotrypsin; conditions: even upon extended exposure, Ward, et al., 1995, Fenteany; cited from earlier work
HepG2 cells = test: Total incorporation of radiolabel (TCA cpm) as indicator of cell toxicity, HepG2; format: cell-based, human; conditions: HepG2, 4 hours; MG132 10 or 30 μM; lactacystin 10 μM
Experimental: as §1

HSF1 = test: EGS cross-linking and Western blot of HSF1 oligomeric forms in HepG2 cells; format: cell-based, human; conditions: cycloheximide 50 μg/ml with ALLN 40 μg/ml, 2 hours
Experimental: FIGS. 6A-6B: ALLN affects the trimerization of HSF. HepG2 cells were treated with serum-free MEM containing 1.5% BSA for 2 hours at 37° C. without any additions (lane1), at 37 ° C. but containing 40μg/ml of ALLN in the medium (lane2), at 37° C. in a medium containing both ALLN and 50 μg/ml of cycloheximide (lane3) , at 42° C. alone (lane4), or at 42° C. plus cycloheximide in the medium (lane5). Cell lysates were prepared as described under Experimental Details. The lysates were either directly run on the SDS-PAGE (A) to show the steady-state protein levels of HSF1 or subjected to cross-linking with ethylene glycol bis sucrinimidylsuccinate (EGS) before running the gel (B) to show the oligomeric forms of HSF1. The proteins were then transfered to a nitrocellulose membrane and immunoblotted with anti-human HSF1 antibody. Arrows on the right side indicates the monomeric, dimeric or trimeric forms of HSF1, respectively. This experiment was repeated three times with identical results.
For measurement of the steady-state HSF1 protein levels, whole cell extracts were prepared by lysing the cells directly with 2×SDS-sample buffer (Maniatis, et al., 1982). For chemical cross-linking experiments, whole-cell extracts were prepared as described (Mosser, et al., 1988). Briefly, the cold PBS-washed cell pellets were quickly and repeatedly frozen in liquid nitrogen. […]

hsp70 (hsp72) mRNA = test: Northern blot of hsp70 (hsp72) mRNA in HepG2 cells; format: cell-based, human; conditions: with ALLN 40 μg/ml, 4 hours; actinomycin D 10 μg/ml; cycloheximide 50 μg/ml
Experimental: HepG2 cells were treated with serum-free MEM containing either 1.5% BSA alone (Control, lane1), BSA plus 40 μg/ml of ALLN (ALLN, lane2), ALLN and 10 μg/ml of actinomycin D (A+AD, lane3), or ALLN and 50 μg/ml of cycloheximide (A+CXM, lane4). After 4 hours treatment at 37° C., cells were harvested. (B). HepG2 cells were treated with 40 μg/ml of ALLN in the serum-free MEM for up to 0 hour (lane1), 1 hour (lane2), 2 hours (lane3), and 3 hours (lane4) and then harvested without recovery. Or after treatment for 3 hours in the presence of ALLN as above, the ALLN containing medium were removed, cells were washed and fed fresh medium containing only BSA for recovery of up to 1 hour (lane5), 3 hours (lane6), 5 hours (lane7) or 7 hours (lane8). The total RNA was prepared, and equal amounts of the samples were loaded and run on a 1% formaldehyde-agarose gel, blotted onto a nylon membrane, and subsequently hybridized with specific synthetic oligonucleotide probes for hsp70 mRNA as described under Experimental Details. The position of 28S and 18S rRNA are shown for reference.
Total RNA was prepared using the procedure of Chomczynski and Sacchi (Chomczynski, et al., 1987) and a commercially prepared reagent, TRISOLV™ (Biotecx Laboratories Inc., Tex.) . Equal amounts of tRNA samples (10 μg) were size-fractionated on a 1% agarose-formaldehyde gel according to the methods described (Maniatis, et al., 1982) and transferred to a piece of QIAGEN plus nylon membrane. To determine loading and transfer efficiency, RNA was stained with ethidium bromide before and after transfer. The membrane was baked for 30 min. at 80° C. in vacuo (a vacuum) followed by UV cross-linking. It was then incubated for 4 hours at 65° C. in a prehybridization mixture containing 10% dextran sulfate, 1% SDS, 1M sodium chloride, 50 mM Tris-HCl (pH 7.5) and 100 μg/ml denatured salmon sperm DNA. Hybridization was carried out for 18 hours at 65° C. in the same buffer with a ^32 P-labeled (1×10^6 cpm/ml) 40-mer oligonucleotide probe to the untranslated 5' region of a human hsp70 gene (Oncogene Science). […] The membrane was then washed four times with 2×SSC, 0.1% SDS at room temperature, one time at 65° C. for 30 min., and one time at room temperature again for 5 min., and finally rinsed with 2×SSC at room temperature. This membrane was air dried and exposed to X-ray film at -80° C. for 48 hours.
Total RNA was isolated from HepG2 cells which had been incubated for 4 hours at 37° C. (FIG. 5A) with MEM containing BSA alone (Control, lane1), BSA plus 40 μg/ml of ALLN (ALLN, lane2), BSA plus ALLN and […] of actinomycin D (A+AD, lane3) or BSA plus ALLN and 50 μg/ml of cycloheximide (A+CXM, lane4). A radioprobe containing a unique sequence specific for the 5' untranslated region of hsp72 (inducible form) (Freeman et al., 1993) was used for Northern blot analysis.

Question: What does the source list for `CSCC[C@@H](C=O)NC(=O)[C@H](CC(C)C)NC(=O)[C@H](CC(C)C)NC(C)=O` [ALLM, N-acetyl-leucyl-leucyl-methioninal] (Ac-Leu-Leu-Met-aldehyde)?
Answer: Protection of HMG-CoA reductase [1]: less effectively; Inhibition of proteasomes (proteasomes): potent inhibitors; Activity against calpain (calpain): significant activities; Activity against cathepsin B (cathepsin B): significant activities; Protection of apoB (apoB): less effectively; Ability to induce Hsp70 levels compared with ALLN (Hsp70; HepG2, 40 μg/ml, 4 hours): less ability to induce Hsp70 levels; Induction of Hsp70 by protease inhibitors (Hsp70; HepG2, 4 hours pre-treatment, ALLN, ALLM 40 μg/ml, leupeptin, pepstatin A 50 μg/ml, E-64d 25 μg/ml, PMSF 1 mM, aprotinin 100 KIU/ml, Benz 1 mM, CIP 200 μM): significantly induce

Question: What does the source list for `CC(=O)N[C@@H](CSC(=O)[C@]1([C@@H](O)C(C)C)NC(=O)[C@H](C)[C@@H]1O)C(=O)O` [lactacystin]?
Answer: Effect on cysteine protease, serine protease, trypsin or chymotrypsin [2]: no detectable effect; Toxicity to the cells (TCA-precipitable radioactivities) (HepG2 cells): without obvious toxicity; Induction of Hsp70 levels by proteasome inhibitors (Hsp70; HepG2, 4 hours, MG132 10 μM or 30 μM, lactacystin 10 μM, 30 min radiolabeling): induced Hsp70 levels dramatically

Question: Which results are given for `C[C@@H]1C[C@@H]([C@H](O)CC2CC(=O)NC(=O)C2)C(=O)[C@@H](C)C1` [cycloheximide]?
Answer: Effect of co-treatment on ALLN-induced HSF1 trimerization (HSF1): abolished the effect of ALLN on HSF1 trimerization; Effect of co-treatment on ALLN-induced hsp70 (hsp72) mRNA (hsp70 (hsp72) mRNA): abolished
